This test has as its target T1, ERAP1 (Homo sapiens, UniProt Q9NZ08).
T1 construct: Purified ERAP1(37-941)-10His (ERAP1); 10His (C)
The test is described as follows: ERAP1 mediated hydrolysis of an amide substrate (10-mer inhibition assay), biochemical system. Particulars: 10-mer substrate, incubated at 23° C. for 1 h, excitation 279 nm and emission 355 nm; read-out: IC50 vs Decapeptide WRVYEKC(Dnp)ALK-acid (where Dnp is Dinitrophenyl maleimide) (10-mer). An excerpt:
This peptide has minimal fluorescence as the N-terminal tryptophan residue's fluorescence is quenched by the dinitrophenol (DNP) residue within the peptide. However, as ERAP1 hydrolyses the N-terminal amide bond and tryptophan is released this internal quenching is lost and the reaction is monitored by the increase in tryptophan fluorescence over the course of the assay. For the purposes of this application this assay is referred to as the “1 Omer inhibition assay” and compound potencies are calculated and expressed as 1050 as would be familiar to a person skilled in the art.
Biological Assay 1: ERAP1 Mediated Hydrolysis of an Amide Substrate Measured in a Biochemical System
• 1× Assay buffer (AB): 25 mM Bis-tris propane, 0.05% w/v Hydroxypropylmethylcellulose pH 7.75 made with Optima grade water • Decapeptide WRVYEKC(Dnp)ALK-acid (where Dnp is Dinitrophenyl maleimide) (10-mer) • L-Leucine 7-amido-4-methylcoumarin (L-AMC) • Purified ERAP1(37-941)-10His (ERAP1)
12.5 μL ERAP1 enzyme in 1×AB was combined with 250 nL test compound in DMSO. 12.5 μL of either 240 μM L-AMC in 1×AB or 100 μM 10-mer in 1×AB was added to the reaction and incubated at 23° C. for 1 h. For detection, plates were read at excitation 365 nm and emission 442 nm (L-AMC) or excitation 279 nm and emission 355 nm (10-mer). Compound IC50 was determined using a 4-parameter equation.

T1 sequence (Q9NZ08 37-941): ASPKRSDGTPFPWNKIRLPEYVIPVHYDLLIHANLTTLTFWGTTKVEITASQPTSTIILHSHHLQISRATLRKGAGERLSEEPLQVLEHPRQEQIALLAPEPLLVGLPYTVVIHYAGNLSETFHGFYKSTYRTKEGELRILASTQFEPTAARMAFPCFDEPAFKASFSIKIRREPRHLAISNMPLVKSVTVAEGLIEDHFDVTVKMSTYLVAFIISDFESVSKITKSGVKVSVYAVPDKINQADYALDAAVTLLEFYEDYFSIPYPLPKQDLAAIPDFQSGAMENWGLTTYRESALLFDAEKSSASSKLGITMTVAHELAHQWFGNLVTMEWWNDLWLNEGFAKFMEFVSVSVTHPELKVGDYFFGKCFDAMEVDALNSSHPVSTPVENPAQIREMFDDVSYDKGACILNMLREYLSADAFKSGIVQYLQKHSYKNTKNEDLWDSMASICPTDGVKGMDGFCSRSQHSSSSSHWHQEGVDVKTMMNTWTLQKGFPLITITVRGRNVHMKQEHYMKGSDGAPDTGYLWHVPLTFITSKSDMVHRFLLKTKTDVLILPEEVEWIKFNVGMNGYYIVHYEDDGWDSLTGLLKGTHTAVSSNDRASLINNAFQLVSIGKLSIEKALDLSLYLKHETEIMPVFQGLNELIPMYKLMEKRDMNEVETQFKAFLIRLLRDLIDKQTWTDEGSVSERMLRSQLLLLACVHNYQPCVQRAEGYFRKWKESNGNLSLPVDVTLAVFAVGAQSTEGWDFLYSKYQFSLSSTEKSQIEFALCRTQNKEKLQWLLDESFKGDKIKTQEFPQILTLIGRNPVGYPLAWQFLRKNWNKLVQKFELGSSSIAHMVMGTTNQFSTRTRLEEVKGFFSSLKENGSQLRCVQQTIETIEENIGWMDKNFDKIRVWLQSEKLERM

The IC50 is the point on the concentration scale where inhibition reaches its midpoint. Regarding “3-chloro-2-(1H-tetrazol-1-yl)-7,8,9,9a,10,11,12,13-octahydro-6H, 20H-dibenzo[b,f]pyrido[1,2-h][1]oxa[4]thia[5,8]diazacyclotridecine-17-carboxylic acid 19,19-dioxide [Example 54]”, the IC50 was less than 250 nM. Regarding `O=C(O)c1ccc2c(c1)S(=O)(=O)Nc1cc(C(F)(F)F)ccc1N1CCCCC1C/C=C/CO2` (racemic) [Example 1, (E)-2-(trifluoromethyl)-7,8,9,9a,10,13-hexahydro-6H, 20H-dibenzo[b,f]pyrido[1,2-h][1]oxa[4]thia[5,8]diazacyclotridecine-17-carboxylic acid 19,19-dioxide], the IC50 is less than 250 nM. On to `N#Cc1ccc2c(c1)NS(=O)(=O)c1cc(C(=O)O)ccc1OCCC1CCCCN21` (racemic) [Example 2, 2-cyano-7,8,9,9a,10,11-hexahydro-6H, 18H-dibenzo[b,f]pyrido[1,2-h][1]oxa[4]thia[5,8]diazacycloundecine-15-carboxylic acid 17,17-dioxide], for which the 50% inhibitory concentration (IC50) was greater than 1000 nM. With `N#Cc1ccc2c(c1)NS(=O)(=O)c1cc(C(=O)O)ccc1OCC1CCCCN21` (racemic) [Example 3, 8-cyano-12,13,14,15,15a,16-hexahydro-6H-dibenzo[b,f]pyrido[1,2 h][1,4,5,8]oxathiadiazecine-3-carboxylic acid 5,5-dioxide], the IC50 was less than 250 nM.

Take `N#Cc1ccc2c(c1)NS(=O)(=O)c1cc(C(=O)O)ccc1OCCCCC1CCCCN21` (racemic) [Example 4, 2-cyano-7,8,9,9a,10,11,12,13-octahydro-6H,20H-dibenzo[b,f]pyrido[1,2-h][1]oxa[4]thia[5,8]diazacyclotridecine-17-carboxylic acid 19,19-dioxide]: the IC50 is less than 250 nM. The value for `N#Cc1cc2c(cc1Cl)N1CCCCC1COc1ccc(C(=O)O)cc1S(=O)(=O)N2` (racemic) [Example 14, 9-chloro-8-cyano-12,13,14,15,15a,16-hexahydro-6H-dibenzo[b,f]pyrido[1,2-h][1,4,5,8]oxathiadiazecine-3-carboxylic acid 5,5-dioxide] was less than 250 nM; that for `N#Cc1ccc2c(c1)NS(=O)(=O)c1cc(C(=O)O)ccc1OC/C=C/CC1CCCCN21` (racemic) [Example 15, (E)-2-cyano-7,8,9,9a,10,13-hexahydro-6H, 20H-dibenzo[b,f]pyrido[1,2-h][1]oxa[4]thia[5,8]diazacyclotridecine-17-carboxylic acid 19,19-dioxide] was less than 250 nM; that for `CS(=O)(=O)c1ccc2c(c1)NS(=O)(=O)c1cc(C(=O)O)ccc1OCC1CCCCN21` (racemic) [Example 18, 8-(methylsulfonyl)-12,13,14,15,15a,16-hexahydro-6H-dibenzo[b,f]pyrido[1,2-h][1,4,5,8]oxathiadiazecine-3-carboxylic acid 5,5-dioxide] was 250 to 1000 nM. The value for `N#Cc1cc2c(cc1Cl)N1CCCCC1CCCOc1ccc(C(=O)O)cc1S(=O)(=O)N2` (racemic) [Example 21, 3-chloro-2-cyano-6,7,8,9,9a,10,11,12-octahydro-19H-dibenzo[b,f]pyrido[1,2-h][1]oxa[4]thia[5,8]diazacyclododecine-16-carboxylic acid 18,18-dioxide] was less than 250 nM. As for `N#Cc1cc2c(cc1Cl)N1CCCCC1CCCCOc1ccc(C(=O)O)cc1S(=O)(=O)N2` (racemic) [Example 22, 3-chloro-2-cyano-7,8,9,9a,10,11,12,13-octahydro-6H, 20H-dibenzo[b,f]pyrido[1,2-h][1]oxa[4]thia[5,8]diazacyclotridecine-17-carboxylic acid 19,19-dioxide], the IC50 is less than 250 nM. In the case of `CS(=O)(=O)c1ccc2c(c1)NS(=O)(=O)c1cc(C(=O)O)ccc1OCCCCC1CCCCN21` (racemic) [Example 23, 2-(methylsulfonyl)-7,8,9,9a,10,11,12,13-octahydro-6H, 20H-dibenzo[b,f]pyrido[1,2-h][1]oxa[4]thia[5,8]diazacyclotridecine-17-carboxylic acid 19,19-dioxide], the IC50 lay within 250 to 1000 nM. Turning to `N#Cc1cc2c(cc1F)N1CCCCC1COc1ccc(C(=O)O)cc1S(=O)(=O)N2` (racemic) [Example 24, 8-cyano-9-fluoro-12,13,14,15,15a,16-hexahydro-6H-dibenzo[b,f]pyrido[1,2-h][1,4,5,8]oxathiadiazecine-3-carboxylic acid 5,5-dioxide], the IC50 was less than 250 nM. For the compound `CS(=O)(=O)c1cc2c(cc1F)N1CCCCC1COc1ccc(C(=O)O)cc1S(=O)(=O)N2` (racemic) [Example 25, 9-fluoro-8-(methylsulfonyl)-12,13,14,15,15a,16-hexahydro-6H-dibenzo[b,f]pyrido[1,2-h][1,4,5,8]oxathiadiazecine-3-carboxylic acid 5,5-dioxide], the IC50 is less than 250 nM. Turning to `N#Cc1cc2c(cc1F)N1CCCCC1CCCCOc1ccc(C(=O)O)cc1S(=O)(=O)N2` (racemic) [Example 28, 2-cyano-3-fluoro-7,8,9,9a,10,11,12,13-octahydro-6H,20H-dibenzo[b,f]pyrido[1,2-h][1]oxa[4]thia[5,8]diazacyclotridecine-17-carboxylic acid 19,19-dioxide], the IC50 was less than 250 nM.

Turning to `N#Cc1cc2c(cc1F)N1CCCCC1CCCOc1ccc(C(=O)O)cc1S(=O)(=O)N2` (racemic) [Example 29, 2-cyano-3-fluoro-6,7,8,9,9a,10,11,12-octahydro-19H-dibenzo[b,f]pyrido[1,2-h][1]oxa[4]thia[5,8]diazacyclododecine-16-carboxylic acid 18,18-dioxide], the IC50 is less than 250 nM. Regarding `N#Cc1cc2c(cc1Cl)N1CCCCC1C/C=C/COc1ccc(C(=O)O)cc1S(=O)(=O)N2` (racemic) [Example 30, (E)-3-chloro-2-cyano-7,8,9,9a,10,13-hexa hydro-6H, 20H-dibenzo[b,f]pyrido[1,2-h][1]oxa[4]thia[5,8]diazacyclotridecine-17-carboxylic acid 19,19-dioxide], the IC50 is less than 250 nM. The value for `CS(=O)(=O)c1cc2c(cc1F)N1CCCCC1CCCCOc1ccc(C(=O)O)cc1S(=O)(=O)N2` (racemic) [Example 31, 3-fluoro-2-(methylsulfonyl)-7,8,9,9a,10,11,12,13-octahydro-6H, 20H-dibenzo[b,f]pyrido[1,2-h][1]oxa[4]thia[5,8]diazacyclotridecine-17-carboxylic acid 19,19-dioxide] was less than 250 nM.

With `CN1c2cc(S(C)(=O)=O)ccc2N2CCCCC2CCCOc2ccc(C(=O)O)cc2S1(=O)=O` (racemic) [Example 34, 19-methyl-2-(methylsulfonyl)-6,7,8,9,9a,10,11,12-octahydro-19H-dibenzo[b,f]pyrido[1,2-h][1]oxa[4]thia[5,8]diazacyclododecine-16-carboxylic acid 18,18-dioxide], the IC50 is less than 250 nM. The result for `N#Cc1cc2c(cc1Cl)N1CCCCC1/C=C/COc1ccc(C(=O)O)cc1S(=O)(=O)N2` (racemic) [Example 35, (E)-3-chloro-2-cyano-6,7,8,9,9a,12-hexahydro-19H-dibenzo[b,f]pyrido[1,2-h][1]oxa[4]thia[5,8]diazacyclododecine-16-carboxylic acid 18,18-dioxide] reads less than 250 nM; that for `CS(=O)(=O)c1ccc2c(c1)NS(=O)(=O)c1cc(C(=O)O)ccc1OCCCC1CCCCN21` (racemic) [Example 36, 2-(methylsulfonyl)-6,7,8,9,9a,10,11,12-octahydro-19H-dibenzo[b,f]pyrido[1,2-h][1]oxa[4]thia[5,8]diazacyclododecine-16-carboxylic acid 18,18-dioxide], less than 250 nM. The result for `CS(=O)(=O)c1cc2c(cc1F)N1CCCCC1CCCOc1ccc(C(=O)O)cc1S(=O)(=O)N2` (racemic) [Example 51, 3-fluoro-2-(methylsulfonyl)-6,7,8,9,9a,10,11,12-octahydro-19H-dibenzo[b,f]pyrido[1,2-h][1]oxa[4]thia[5,8]diazacyclododecine-16-carboxylic acid 18,18-dioxide] reads 250 to 1000 nM; that for `N#Cc1cc2c(cc1Cl)N1CCCCC1COCCOc1ccc(C(=O)O)cc1S(=O)(=O)N2` (racemic) [Example 65, 3-chloro-2-cyano-6,7,8,9,9a,10,12,13-octahydro-20H-dibenzo[e,i]pyrido[1,2-k][1,4]dioxa[7]thia[8,11]diazacyclotridecine-17-carboxylic acid 19,19-dioxide], less than 250 nM; that for `N#Cc1cc2c(cc1Cl)N1CCCCC1CNCCOc1ccc(C(=O)O)cc1S(=O)(=O)N2` (racemic) [Example 66, 3-chloro-2-cyano-7,8,9,9a,10,11,12,13-octahydro-6H, 20H-dibenzo[b,f]pyrido[1,2-h][1]oxa[4]thia[5,8,11]triazacyclotridecine-17-carboxylic acid 19,19-dioxide], greater than 1000 nM.

Turning to `N#Cc1ccc2c(c1)NS(=O)(=O)c1cc(C(=O)O)ccc1OCCC1CCCCN21` (single isomer, unassigned) [Example 6, 2-cyano-7,8,9,9a,10,11-hexahydro-6H, 18H-dibenzo[b,f]pyrido[1,2-h][1]oxa[4]thia[5,8]diazacycloundecine-15-carboxylic acid 17,17-dioxide], the IC50 is greater than 1000 nM.

The values are drawn from patent US20240300976A1, “COMPOUNDS AS MODULATORS OF ENDOPLASMIC RETICULUM AMINOPEPTIDASE 1 (ERAP1)” (GREY WOLF THERAPEUTICS LIMITED, priority 2020, published 2024).
